≈ marks a conversion by molar mass, not a printed value. Counter-ions that a name gives are not always drawn. Like-named read-outs stand apart in the source and are kept apart here.
Tests used:
[1] = system: various fungal and bacterial strains; experiment: Antimicrobial activity against selected microorganisms (summary statements); type: cell-based; details: for Antimicrobial activity (in words): fungi and bacteria of Table 3
Procedure: (§1) Gentamicin, kanamycin, nystatin, and oxytetracycline were used as positive controls against tested organisms. […] Epothilone B and methanol were used as positive and negative control, respectively.
(§2) The polyketides 1–5 were evaluated for their antimicrobial activity against selected microorganisms (Table 3) and cytotoxicity against two mammalian cell lines, HeLa cells KB3.1 and mouse fibroblast cell line L929 (Table 4). The starting concentration for antimicrobial assay and cytotoxicity assay were 66.7 and 300 µg/mL, respectively and the substances were dissolved in MeOH (1 mg/mL). […] Results were expressed as MIC or minimum inhibitory concentration (μg/mL) and IC50 or half maximal inhibitory concentration (μM) (Table 3 and Table 4).

[2] = system: several cancer cell lines; parameters: method as in PMID 30258223; details: cell proliferation inhibition and apoptosis induction; cited from earlier work
[3] = system: HeLa cells KB3.1; experiment: In vitro cytotoxicity, MTT assay; type: cell-based; details: Homo sapiens
Procedure: as §1, §2

[4] = system: Mouse fibroblast L929; experiment: In vitro cytotoxicity, MTT assay; type: cell-based
Procedure: as §1, §2

[5] = system: Bacillus subtilis; experiment: MIC, 96-well serial dilution; type: cell-based; details: for MIC: Bacillus subtilis
Procedure: as §1, §2

[6] = system: Mucor hiemalis; experiment: MIC, 96-well serial dilution; type: cell-based; as to Minimum Inhibitory Concentration (MIC): key: (-): no inhibition
Procedure: as §1, §2

[7] = system: Staphylococcus aureus; experiment: MIC, 96-well serial dilution; type: cell-based; details: for MIC: Staphylococcus aureus
Procedure: as §1, §2

[8] = system: Micrococcus luteus; experiment: MIC, 96-well serial dilution; type: cell-based; details: for MIC: Micrococcus luteus
Procedure: as §1, §2

[9] = system: Mycobacterium smegmatis; experiment: MIC, 96-well serial dilution; type: cell-based
Procedure: as §1, §2

[10] = system: Escherichia coli; experiment: MIC, 96-well serial dilution; type: cell-based; details: strain DSM 1116, starting concentration 66.7 µg/mL, control volume in brackets; also: key: (-): no inhibition
Procedure: as §1, §2

[11] = system: Candida albicans; experiment: MIC, 96-well serial dilution; type: cell-based
Procedure: as §1, §2

[12] = system: Pseudomonas aeruginosa; experiment: MIC, 96-well serial dilution; type: cell-based; details: strain PA14; starting concentration 66.7 µg/mL; control volume in brackets; also: key: (-): no inhibition
Procedure: as §1, §2

[13] = system: Chromobacterium violaceum; experiment: MIC, 96-well serial dilution; type: cell-based; details: strain DSM 30191, starting concentration 66.7 µg/mL, control volume in brackets; also: key: (-): no inhibition
Procedure: as §1, §2

[14] = parameters: method as in PMID 30258223; details: cited from earlier work
[15] = system: HeLa cells KB3.1 and mouse fibroblast cell line L929; experiment: Cytotoxicity against two mammalian cell lines (summary statements); details: HeLa KB3.1 and L929
Procedure: as §1, §2

[16] = system: Pichia anomala; experiment: MIC, 96-well serial dilution; type: cell-based; details: strain DSM 6766; starting concentration 66.7 µg/mL; control volume in brackets
Procedure: as §1, §2

[17] = system: Rhodoturula glutinis; experiment: MIC, 96-well serial dilution; type: cell-based; details: strain DSM 10134; starting concentration 66.7 µg/mL; control volume in brackets
Procedure: as §1, §2

[18] = system: Schizosaccharomyces pombe; experiment: MIC, 96-well serial dilution; type: cell-based; details: strain DSM 70572; starting concentration 66.7 µg/mL; control volume in brackets
Procedure: as §1, §2

[19] = system: Cryptococcus neoformans; experiment: MIC, 96-well serial dilution; type: cell-based; details: strain DSM 15466; starting concentration 66.7 µg/mL; control volume in brackets
Procedure: as §1, §2

[20] = system: B. subtilis; parameters: method as in PMID 30258223; details: cited from earlier work
[21] = system: Pseudoalteromonas nigrifaciens; parameters: method as in PMID 30258223; details: cited from earlier work
[22] = system: CCR5-tropic HIV-1; parameters: method as in PMID 29258357; details: inhibition of infection; cited from earlier work
[23] = system: MDA-MB-435 human melanoma cells; parameters: method as in PMID 23232928; details: cited from earlier work
[24] = system: CXCR4-tropic HIV-1; parameters: method as in PMID 29258357; details: inhibition of infection; cited from earlier work
[25] = system: SW620 human colorectal adenocarcinoma cell lines; parameters: method as in PMID 23232928; details: cited from earlier work
[26] = system: M. luteus; parameters: method as in PMID 30258223; details: cited from earlier work
[27] = system: E. coli; parameters: method as in PMID 30258223; details: cited from earlier work
[28] = MTT assay, HeLa cells KB3.1, starting concentration 66 μg/mL, read-out: IC50
[29] = MTT assay, mouse fibroblast L929, starting concentration 66 μg/mL, read-out: IC50
[30] = strain DSM 6766, starting concentration 66.7 µg/mL, control volume in brackets
[31] = DSM10, strain DSM 10, starting concentration 66.7 µg/mL, control volume in brackets, read-out: Minimum Inhibitory Concentration (MIC)
[32] = DSM346, strain DSM 346, starting concentration 66.7 µg/mL, control volume in brackets, read-out: Minimum Inhibitory Concentration (MIC)
[33] = DSM1790, strain DSM 1790, starting concentration 66.7 µg/mL, control volume in brackets, read-out: Minimum Inhibitory Concentration (MIC)
[34] = strain DSM 10, starting concentration 66.7 µg/mL, control volume in brackets
[35] = strain DSM 346, starting concentration 66.7 µg/mL, control volume in brackets
[36] = strain DSM 1790, starting concentration 66.7 µg/mL, control volume in brackets

C[C@H]1CC(O)=C2C(=O)c3c(O)ccc(-c4ccc(O)c5c4O[C@]4(C(=O)O)C(=C(O)C[C@H](C)[C@H]4O)C5=O)c3O[C@@]2(C(=O)O)[C@@H]1O [Compound 2, 4,4′-secalonic acid D]
Inhibitory activity against Gram-positive bacteria (in words) ([1]; Bacillus subtilis, Micrococcus luteus, Mycobacterium smegmatis, Staphylococcus aureus): showed inhibitory activity | Antitumor activity (in words) [2]: “potent” antitumor activity | IC50 [3, 28]: 3.9 µM | IC50 [4, 29]: 14.1 µM | MIC ([5]; DSM10, read-out: Minimum Inhibitory Concentration (MIC)): 1 µg/mL (≈ 1.64 µM) | Minimum Inhibitory Concentration (MIC) [6, 30]: - | MIC ([7]; DSM346, read-out: Minimum Inhibitory Concentration (MIC)): 4.2 µg/mL (≈ 6.88 µM) | MIC ([8]; DSM1790, read-out: Minimum Inhibitory Concentration (MIC)): 8.3 µg/mL (≈ 13.6 µM) | Activity against Mycobacterium smegmatis (in words) [9]: showed activity | MIC ([9]; Mycolicibacterium smegmatis, ATCC700084, read-out: Minimum Inhibitory Concentration (MIC)): 66.7 µg/mL (≈ 109 µM) | Minimum Inhibitory Concentration (MIC) [10]: - | MIC ([11]; Candida albicans, DSM1665, read-out: Minimum Inhibitory Concentration (MIC)): 66.7 µg/mL (≈ 109 µM) | Inhibition of Candida albicans (in words) ([11]; comparable to nystatin): showed inhibition | Minimum Inhibitory Concentration (MIC) [12]: - | Minimum Inhibitory Concentration (MIC) [13]: - | Toxicity (in words) [14]: low toxicity

CN(C)[C@@H]1C(O)=C(C(N)=O)C(=O)[C@@]2(O)C(O)=C3C(=O)c4c(O)cccc4[C@@](C)(O)[C@H]3[C@H](O)[C@@H]12 [O, oxytetracycline hydrochloride, reference compound]
MIC [5, 31]: 8.3 µg/mL | MIC [7, 32]: 0.2 µg/mL | MIC [8, 33]: 0.4 µg/mL | MIC ([10]; Escherichia coli, DSM1116, read-out: Minimum Inhibitory Concentration (MIC)): 3.3 µg/mL | MIC ([13]; Chromobacterium violaceum, DSM30191, read-out: Minimum Inhibitory Concentration (MIC)): 1.7 µg/mL

COC(=O)C1(C2OC(=O)CC2C)CC(=O)c2c(O)cccc2O1 (stereo not drawn) [Compound 4, paecilin B]
Antimicrobial activity (in words) [1]: neither antimicrobial nor cytotoxic activities | Cytotoxic activity (in words) [15]: neither antimicrobial nor cytotoxic activities | IC50 [3, 28]: > 200 µM | IC50 [4, 29]: > 103 µM | Minimum Inhibitory Concentration (MIC) [5, 34]: - | Minimum Inhibitory Concentration (MIC) [6, 30]: - | Minimum Inhibitory Concentration (MIC) [7, 35]: - | Minimum Inhibitory Concentration (MIC) [8, 36]: - | Minimum Inhibitory Concentration (MIC) [10]: - | Minimum Inhibitory Concentration (MIC) [12]: - | Minimum Inhibitory Concentration (MIC) [13]: -

C/C(=C\c1csc(C)n1)[C@@H]1C[C@@H]2O[C@]2(C)CCC[C@H](C)[C@H](O)[C@@H](C)C(=O)C(C)(C)[C@@H](O)CC(=O)O1 [Epothilone B, reference compound]
IC50 [3]: 8.9e-05 µM | IC50 ([4]; Mus musculus, L929): 0.0018 µM

Cc1ccc(C(=O)c2c(O)cccc2C(=O)O)c(O)c1 [Compound 5, cephalanone F]
Antimicrobial activity (in words) [1]: neither antimicrobial nor cytotoxic activities | Cytotoxic activity (in words) [15]: neither antimicrobial nor cytotoxic activities | IC50 [3, 28]: > 200 µM | IC50 [4, 29]: > 103 µM | Minimum Inhibitory Concentration (MIC) [5, 34]: - | Minimum Inhibitory Concentration (MIC) [6, 30]: - | Minimum Inhibitory Concentration (MIC) [7, 35]: - | Minimum Inhibitory Concentration (MIC) [8, 36]: - | Minimum Inhibitory Concentration (MIC) [10]: - | Minimum Inhibitory Concentration (MIC) [12]: - | Minimum Inhibitory Concentration (MIC) [13]: -

COC(=O)C1(C2OC(=O)CC2C)CC(=O)c2c(O)ccc(-c3ccc4c(c3O)C(=O)C3(O)C5(O)CC(C)C(O)C3(O4)C(=O)O5)c2O1 (stereo not drawn) [Compound 1, pseudopalawanone]
IC50 [3, 28]: 29.7 µM | IC50 [4, 29]: 50 µM | MIC [5, 31]: 66.7 µg/mL (≈ 104 µM) | Minimum Inhibitory Concentration (MIC) [6, 30]: - | MIC [7, 32]: 66.7 µg/mL (≈ 104 µM) | MIC [8, 33]: 66.7 µg/mL (≈ 104 µM) | Minimum Inhibitory Concentration (MIC) [10]: - | Minimum Inhibitory Concentration (MIC) [12]: - | Minimum Inhibitory Concentration (MIC) [13]: -

NC[C@H]1O[C@H](O[C@H]2[C@H](O)[C@@H](O[C@H]3O[C@H](CO)[C@@H](O)[C@H](N)[C@H]3O)[C@H](N)C[C@@H]2N)[C@H](O)[C@@H](O)[C@@H]1O [K, kanamycin, reference compound]
Minimum Inhibitory Concentration (MIC) ([9]; strain ATCC 700084, starting concentration 66.7 µg/mL, control volume in brackets): 3.3 (2 µL K) μg/mL

C[C@@H]1[C@H](O)[C@@H](C)/C=C/C=C/CC/C=C/C=C/C=C/C=C/C(O[C@H]2O[C@H](C)[C@@H](O)[C@H](N)[C@@H]2O)CC2O[C@](O)(CC(O)C(O)CCC(O)CC(O)CC(O)CC(=O)O[C@H]1C)CC(O)C2C(=O)O (stereo partly drawn) [N, nystatin]
Minimum Inhibitory Concentration (MIC) [16]: 66.7 (20 µL N) μg/mL | Minimum Inhibitory Concentration (MIC) ([11]; strain DSM 1665, starting concentration 66.7 µg/mL, control volume in brackets): 66.7 (20 µL N) μg/mL | Minimum Inhibitory Concentration (MIC) [17]: 16.7 (20 µL N) μg/mL | Minimum Inhibitory Concentration (MIC) [18]: 33.3 (20 µL N) μg/mL | Minimum Inhibitory Concentration (MIC) [19]: 66.7 (20 µL N) μg/mL

C[C@H]1CC(O)=C2C(=O)c3c(ccc(-c4ccc(O)c5c4O[C@]4(C(=O)O)C(=C(O)C[C@H](C)[C@@H]4O)C5=O)c3O)O[C@@]2(C(=O)O)[C@H]1O [Compound 3, penicillixanthone A]
Antibacterial activity (in words) [20]: moderate antibacterial activity | Antibacterial activity (in words) [21]: moderate antibacterial activity | Anti-HIV-1 activity (in words) [22]: inhibiting | IC50 [3, 28]: 17.2 µM | IC50 [4, 29]: > 103 µM | MIC [5, 31]: 4.2 µg/mL (≈ 6.88 µM) | MIC ([6]; Mucor hiemalis, DSM6766, strain DSM 6766, starting concentration 66.7 µg/mL, control volume in brackets, read-out: Minimum Inhibitory Concentration (MIC)): 66.7 µg/mL (≈ 109 µM) | Inhibition of Mucor hiemalis (in words) ([6]; comparable to nystatin): inhibited | MIC [7, 32]: 33.3 µg/mL (≈ 54.5 µM) | MIC [8, 33]: 33.3 µg/mL (≈ 54.5 µM) | Minimum Inhibitory Concentration (MIC) [10]: - | Minimum Inhibitory Concentration (MIC) [12]: - | Minimum Inhibitory Concentration (MIC) [13]: - | Cytotoxic effects (in words) [23]: moderate cytotoxic effects | Anti-HIV-1 activity (in words) [24]: inhibiting | Cytotoxic effects (in words) [25]: moderate cytotoxic effects | Antibacterial activity (in words) [26]: moderate antibacterial activity | Antibacterial activity (in words) [27]: moderate antibacterial activity

Source: PMC7226469, “Polyketide-Derived Secondary Metabolites from a Dothideomycetes Fungus, Pseudopalawania siamensis gen. et sp. nov., (Muyocopronales) with Antimicrobial and Cytotoxic Activities” (Biomolecules, 2020)
